Results published in patent US9636311B2, “N,N′-di-1 naphthylguanidine HCl (NAGH) and N,N′-di-p-nitrophenylguanidine HCl (NAD) treatment for stroke at delayed timepoints” (University of South Florida, priority 2012, dated 2017).

Legend:
Assay type in all cases: in vivo, rat
[1] = system: rats following MCAO; assay: Battery of behavioral tests after MCAO (corner, grip, rotorod, step, cylinder); conditions: 30 days after MCAO
Protocol: After surgery, animals were tested was performed once before surgery and 30 days post-surgery for motor coordination and behavior. All behavioral data are reported as mean+sem.
Rotorod test, which measures motor coordination, was conducted using Omni-rotor Rotorod (Omnitech, Inc). Animals were trained on the accelerating rotorod apparatus for 3 consecutive days before times were collected. Animals were placed on the revolving rod and instrument was set to accelerate to a maximum speed of 40 rpm over 180 seconds. Latency to fall (in seconds) was recorded. This test was performed in triplicate once per day for 3 days.
Rats were held tightly with one forelimb placed on a hard flat table top and then pulled for a length of 1 meter in the direction of the placed forelimb at constant velocity. The test was repeated with the opposite forelimb. This was repeated three times for each forelimb and the percent of contralateral forelimb paw was obtained. The bias was standardized as the absolute number of steps with the contralateral paw minus 100.
The animals were placed in a transparent cylinder about 20 cm in diameter and 30 cm in height with an open top. The number times each paw was placed on the sides of the cylinder was counted a5 minute period. The test was videotaped and a mirror was placed behind the cylinder allowing the experimenter to see the placement of paws when the animal was facing away from the camera.
A 30 degree angle was formed using the edges of two plexiglass boards. The animals were placed halfway into the corner facing the corner and the total number of left and right turns was recorded. A total of 10 trials were conducted and videotaped. A non-lesioned animal turned randomly toward the left or right, while a lesioned animal preferentially turned toward the non-impaired (left) side. Results were reported as the percentage of ipsilateral (injury site, right side) versus contralateral turns.
Motor deficits were assessed using a grip strength meter (Bioseb, # BIO-GS3). […] Grip strength was recorded in Newtons (N). […]

[2] = system: rats following MCAO; assay: White matter injury, Luxol Fast Blue staining after MCAO; conditions: 30 days post-stroke
Protocol: (§1) MCAO surgeries were performed as described elsewhere (Vendrame M, Cassady C J, Newcomb J, Butler T, Pennypacker K R, Zigova T, et al. Stroke. 2004; 35:2390-2395). Briefly, rats were anesthetized with isoflurane, and the right common carotid and external carotid arteries were exposed using blunt dissection techniques. The vagus nerve was separated from common carotid artery and the external carotid artery was ligated proximally, and transected near the bifurcation. An embolus 40 mm in length (4.0 siliconized monofilament) was inserted into the external carotid artery and fed distally into the origin of the middle cerebral artery (˜25 mm from insertion) through the internal carotid artery. Blood samples were taken and analyzed using an i-STAT handheld analyzer for hemoglobin, hematocrit, ionized calcium, glucose, sodium, potassium, pH, pCO2, HCO3, TCO2, base excess, pO2, and O2. Cerebral blood flow was recorded using a Laser Doppler Monitor (Moor Instruments) to verify occlusion. Afterwards, the embolus was ligated permanently into the vessel and the neck incision was closed. Animals were treated with Ketoprofen IM (10 mg/kg) for three days post-surgery.
(§2) For the NAGH studies, vehicle or NAGH were prepared fresh each day. Daily subcutaneous injections (s.c) were administered beginning about 24 hours after MCAO and continued daily to about 72 hours post-surgery (FIG. 1). Animals received a total of 3 injections. A total of 84 animals were randomly assigned into 2 groups: Rats treated with vehicle (40% DMSO in sterile saline, n=42), or rats treated with 0.86 mg/kg NAGH (n=42).
To evaluate white matter injury, coronal brain sections from each the animals were stained with Luxol Fast Blue (LFB; Sigma-Aldrich). For Luxol Fast Blue (LFB) staining, slides were dehydrated in 95% ethanol and incubated in LFB solution at 56° C. overnight. The following day slides were rinsed in 95% ethanol and distilled water and differentiated in 0.1% lithium carbonate solution for 20 s followed by 70% ethyl alcohol for 30 s, and finally rinsed in distilled water. After complete gray and white matter differentiation, slides were dehydrated and placed under coverslips with DPX. The quantitative analysis for demyelination in LFB staining section was performed as described previously with some modification (Virgili, Espinosa-Parrilla et al. 2011; Yu, Gong et al. 2012). LFB stained area was measured on the randomly selected sections (n=21-23 animals/group) to assess demyelination. The extent of the LFB positive area was quantified using a pixel grayscale approach in ImageJ software (National Institute of Health, USA). […] Once calibrated, the amount of LFB staining was measured as the percentage of hemispheric area using ImageJ software.

[3] = system: rats following MCAO; assay: Brain infarction quantification (Nissl thionin) after MCAO; conditions: s.c. daily for 3 days from 24 h post-MCAO (NAGH 0.86 mg/kg, NAD 2.8 mg/kg); 30 days post MCAO; mean±SEM
Protocol: All animal procedures were performed according to the University of South Florida guidelines for the care and use of animals and protocols were reviewed and approved by the Institutional Animal Care and Use Committee and adhered to the NIH guidelines for the care and use of animals. Adult male Sprague Dawley rats (Harlan) weighing about 250-300 g at the time of surgery were used for the study. All animals were housed two per cage in a temperature controlled room, under a 12 hour light-dark cycle, and given access to water and food ad libitum. Animals were monitored daily for wellness and biweekly for weight loss. For the NAGH studies, a total of 84 animals were randomly assigned to 2 groups: MCAO only (n=42) and rat treated with NAGH (n=42) beginning 24 hour after MCAO.
as §1, §2
For the studies with other compounds based on the structure of DTG, twenty-four hours after MCAO, the rats began a sigma agonist treatment regimen. Vehicle or drug was prepared fresh each day. […]
Infarct size was determined by Nissl thionin staining. […]

SMILES: Cl.N=C(Nc1cccc2ccccc12)Nc1cccc2ccccc12 [NAGH, N,N′-di-1-Naphthylguanidine hydrochloride]
- Overall behavioral data vs vehicle, all tests except EBST ([1]; NAGH 0.86 mg/kg s.c. x3): no significant differences
- Changes in asymmetry on the cylinder test ([1]; NAGH): failed to gain significance
- White matter tracts (LFB) vs DMSO [2]: white matter tracts were more intact
- Percent change in LFB staining from contralateral to ipsilateral hemisphere ([2]; p<0.05 vs DMSO): −0.73+7.7%
- LFB staining, ischemic hemisphere (percentage of hemispheric area) ([2]; NAGH 0.86 mg/kg s.c. x3, n=22): 10.32±0.48%
- LFB staining, non-ischemic hemisphere (percentage of hemispheric area) ([2]; NAGH 0.86 mg/kg s.c. x3, n=22): 9.81±0.38%
- Infarct volume (percent of hemisphere) [3]: 13.58±2.3%
